Measurements from patent US10947227B2, “Tricyclic heterocyclic compounds as sting activators” (Incyte Corporation, priority 2018, dated 2021).

Test system: IRF3 activation in THP-1 Dual Cells
Test: IRF3 activation assay in THP-1 Dual Cells (QUANTI-Blue readout)
Type: cell-based
Conditions: Homo sapiens, THP1-Dual, 24 h
Protocol: THP-1 Dual Cells (Invivogen) were maintained in RPMI1640 medium with addition of 10% FBS, 100 μg/ml zeocin, 10 μg/ml blasticidin. Cells were added in a 96-well flat bottom assay plate at 100,000 per well in 100 μL complete RPMI medium. Test compounds were prepared by serial dilution in complete RPMI medium and 100 μL test compounds were transferred to each corresponding well. The assay plate was incubated at 37° C., 5% CO2 for 24 hours. After the overnight incubation, 20 μL of the culture supernatants were collected, followed by addition of 180 μL of QUANTI-Blue (Invivogen) to assess IRF3 activity. The amount of IRF3 activation was assessed by reading the absorbance at 620-655 nm with a microplate reader 2 hours later. The culture supernatant from the untreated THP-1 cells was used as the negative control. To determine the NF-κB activation, another 20 μL of culture supernatant were transferred to a 96-well white plate, followed by addition of 50 μL of Quanti-Luc™ assay solution (Invivogen). The amount of NF-κB activation induced by the test compounds were determined by the luminescence above the untreated control. EC50 determination was performed by fitting the curve of percent control activity versus the log of the compound concentration using the GraphPad Prism 6.0 software.

CCn1nc(C)cc1C(=O)Nc1nc2cc(C(N)=O)cc(OCCCO)c2n1C/C=C/Cn1c2nc(-c3cc(C)nn3CC)ncc2c2cc(C(N)=O)cc(OCCCOC)c21 [Example 22, (E)-9-(4-(5-carbamoyl-2-(1-ethyl-3-methyl-1H-pyrazole-5-carboxamido)-7-(3-hydroxypropoxy)-1H-benzo[d]imidazol-1-yl)but-2-en-1-yl)-2-(1-ethyl-3-methyl-1H-pyrazol-5-yl)-8-(3-methoxypropoxy)-9H-pyrimido[4,5-b]indole-6-carboxamide]
EC50 (Table 1, 24 hours incubation): < 200 nM
EC50 (Table 2, 24 hours incubation): < 50 nM

CCn1nc(C)cc1C(=O)Nc1nc2cc(C(N)=O)cc(C)c2n1C/C=C/Cn1c2ccc(C(N)=O)cc2c2cnc(-c3cc(C)nn3CC)c(F)c21 [Example 23, (E)-5-(4-(5-carbamoyl-2-(1-ethyl-3-methyl-1H-pyrazole-5-carboxamido)-7-methyl-1H-benzo[d]imidazol-1-yl)but-2-en-1-yl)-3-(1-ethyl-3-methyl-1H-pyrazol-5-yl)-4-fluoro-5H-pyrido[4,3-b]indole-8-carboxamide]
EC50 (Table 1, 24 hours incubation): < 200 nM
EC50 (Table 2, 24 hours incubation): 50 to 200 nM

CCn1nc(C)cc1C(=O)Nc1nc2cc(C(N)=O)cc(C)c2n1C/C=C/Cn1c2ccc(C(N)=O)cc2c2cc(F)c(-c3cc(C)nn3CC)nc21 [Example 24, (E)-9-(4-(5-carbamoyl-2-(1-ethyl-3-methyl-1H-pyrazole-5-carboxamido)-7-methyl-1H-benzo[d]imidazol-1-yl)but-2-en-1-yl)-2-(1-ethyl-3-methyl-1H-pyrazol-5-yl)-3-fluoro-9H-pyrido[2,3-b]indole-6-carboxamide]
EC50 (Table 1, 24 hours incubation): < 200 nM
EC50 (Table 2, 24 hours incubation): < 50 nM

CCn1nc(C)cc1C(=O)Nc1nc2cc(C(N)=O)cc(C)c2n1C/C=C/Cn1c2ccc(C(N)=O)cc2c2cc(C#N)c(-c3cc(C)nn3CC)nc21 [Example 25, (E)-9-(4-(5-carbamoyl-2-(1-ethyl-3-methyl-1H-pyrazole-5-carboxamido)-7-methyl-1H-benzo[d]imidazol-1-yl)but-2-en-1-yl)-3-cyano-2-(1-ethyl-3-methyl-1H-pyrazol-5-yl)-9H-pyrido[2,3-b]indole-6-carboxamide]
EC50 (Table 1, 24 hours incubation): < 1000 nM
EC50 (Table 2, 24 hours incubation): 200 to 500 nM

CCn1nc(C)cc1C(=O)Nc1nc2cc(C(N)=O)cc(C)c2n1C/C=C/Cn1c2ccc(C(N)=O)cc2c2cnc(-c3cc(C)nn3CC)c(C#N)c21 [Example 26, (E)-5-(4-(5-carbamoyl-2-(1-ethyl-3-methyl-1H-pyrazole-5-carboxamido)-7-methyl-1H-benzo[d]imidazol-1-yl)but-2-en-1-yl)-4-cyano-3-(1-ethyl-3-methyl-1H-pyrazol-5-yl)-5H-pyrido[4,3-b]indole-8-carboxamide]
EC50 (Table 1, 24 hours incubation): < 1000 nM
EC50 (Table 2, 24 hours incubation): 500 to 1000 nM

CCn1nc(C)cc1C(=O)Nc1nc2cc(C(N)=O)cc(OCCCN3CCOCC3)c2n1C/C=C/Cn1c2nc(-c3cc(C)nn3CC)ncc2c2cc(C(N)=O)cc(OCCCOC)c21 [Example 27, (E)-9-(4-(5-carbamoyl-2-(1-ethyl-3-methyl-1H-pyrazole-5-carboxamido)-7-(3-morpholinopropoxy)-1H-benzo[d]imidazol-1-yl)but-2-en-1-yl)-2-(1-ethyl-3-methyl-1H-pyrazol-5-yl)-8-(3-methoxypropoxy)-9H-pyrimido[4,5-b]indole-6-carboxamide]
EC50 (Table 1, 24 hours incubation): < 200 nM
EC50 (Table 2, 24 hours incubation): < 50 nM

CCn1nc(C)cc1C(=O)Nc1nc2cc(C(N)=O)cc(O)c2n1C/C=C/Cn1c2nc(-c3cc(C)nn3CC)ncc2c2cc(C(N)=O)cc(OCCCOC)c21 [Example 28, (E)-9-(4-(5-carbamoyl-2-(1-ethyl-3-methyl-1H-pyrazole-5-carboxamido)-7-hydroxy-1H-benzo[d]imidazol-1-yl)but-2-en-1-yl)-2-(1-ethyl-3-methyl-1H-pyrazol-5-yl)-8-(3-methoxypropoxy)-9H-pyrimido[4,5-b]indole-6-carboxamide]
EC50 (Table 1, 24 hours incubation): < 200 nM
EC50 (Table 2, 24 hours incubation): < 50 nM

CCn1nc(C)cc1C(=O)Nc1nc2cc(C(N)=O)cc(OCCCC#N)c2n1C/C=C/Cn1c2nc(-c3cc(C)nn3CC)ncc2c2cc(C(N)=O)cc(OCCCOC)c21 [Example 29, (E)-9-(4-(5-carbamoyl-7-(3-cyanopropoxy)-2-(1-ethyl-3-methyl-1H-pyrazole-5-carboxamido)-1H-benzo[d]imidazol-1-yl)but-2-en-1-yl)-2-(1-ethyl-3-methyl-1H-pyrazol-5-yl)-8-(3-methoxypropoxy)-9H-pyrimido[4,5-b]indole-6-carboxamide]
EC50 (Table 2, 24 hours incubation): < 50 nM

CCn1nc(C)cc1C(=O)Nc1nc2cc(C(N)=O)cc(OC(C)C)c2n1C/C=C/Cn1c2nc(-c3cc(C)nn3CC)ncc2c2cc(C(N)=O)cc(OCCCOC)c21 [Example 30, (E)-9-(4-(5-carbamoyl-2-(1-ethyl-3-methyl-1H-pyrazole-5-carboxamido)-7-isopropoxy-1H-benzo[d]imidazol-1-yl)but-2-en-1-yl)-2-(1-ethyl-3-methyl-1H-pyrazol-5-yl)-8-(3-methoxypropoxy)-9H-pyrimido[4,5-b]indole-6-carboxamide]
EC50 (Table 2, 24 hours incubation): 50 to 200 nM

CCn1nc(C)cc1C(=O)Nc1nc2cc(C(N)=O)cc(OCCCN3CCN(C)CC3)c2n1C/C=C/Cn1c2nc(-c3cc(C)nn3CC)ncc2c2cc(C(N)=O)cc(OCCCOC)c21 [Example 31, (E)-9-(4-(5-carbamoyl-2-(1-ethyl-3-methyl-1H-pyrazole-5-carboxamido)-7-(3-(4-methylpiperazin-1-yl)propoxy)-1H-benzo[d]imidazol-1-yl)but-2-en-1-yl)-2-(1-ethyl-3-methyl-1H-pyrazol-5-yl)-8-(3-methoxypropoxy)-9H-pyrimido[4,5-b]indole-6-carboxamide]
EC50 (Table 2, 24 hours incubation): 50 to 200 nM

CCn1nc(C)cc1C(=O)Nc1nc2cc(C(N)=O)cc(OCCCO)c2n1C/C=C/Cn1c2ccc(C(N)=O)cc2c2cc(F)c(-c3cc(C)nn3CC)nc21 [Example 32, (E)-9-(4-(5-carbamoyl-2-(1-ethyl-3-methyl-1H-pyrazole-5-carboxamido)-7-(3-hydroxypropoxy)-1H-benzo[d]imidazol-1-yl)but-2-en-1-yl)-2-(1-ethyl-3-methyl-1H-pyrazol-5-yl)-3-fluoro-9H-pyrido[2,3-b]indole-6-carboxamide]
EC50 (Table 2, 24 hours incubation): < 50 nM

CCn1nc(C)cc1C(=O)Nc1nc2cc(C(N)=O)cc(OCCCN)c2n1C/C=C/Cn1c2nc(-c3cc(C)nn3CC)ncc2c2cc(C(N)=O)cc(OCCCOC)c21 [Example 33, (E)-9-(4-(7-(3-aminopropoxy)-5-carbamoyl-2-(1-ethyl-3-methyl-1H-pyrazole-5-carboxamido)-1H-benzo[d]imidazol-1-yl)but-2-en-1-yl)-2-(1-ethyl-3-methyl-1H-pyrazol-5-yl)-8-(3-methoxypropoxy)-9H-pyrimido[4,5-b]indole-6-carboxamide]
EC50 (Table 2, 24 hours incubation): 500 to 1000 nM

CCn1nc(C)cc1C(=O)Nc1nc2cc(C(N)=O)cc(OCCO)c2n1C/C=C/Cn1c2nc(-c3cc(C)nn3CC)ncc2c2cc(C(N)=O)cc(OCCCOC)c21 [Example 36, (E)-9-(4-(5-carbamoyl-2-(1-ethyl-3-methyl-1H-pyrazole-5-carboxamido)-7-(2-hydroxyethoxy)-1H-benzo[d]imidazol-1-yl)but-2-en-1-yl)-2-(1-ethyl-3-methyl-1H-pyrazol-5-yl)-8-(3-methoxypropoxy)-9H-pyrimido[4,5-b]indole-6-carboxamide]
EC50 (Table 2, 24 hours incubation): < 50 nM

CCn1nc(C)cc1C(=O)Nc1nc2cc(C(N)=O)cc(OCCCNC(=O)[C@H](CC(=O)O)NC(=O)[C@H](CC(=O)O)NC(=O)[C@H](CCCNC(=N)N)NC(=O)[C@@H](N)CC(=O)O)c2n1C/C=C/Cn1c2nc(-c3cc(C)nn3CC)ncc2c2cc(C(N)=O)cc(OCCCOC)c21 [Example 37, (6S,9S,12S,15S)-15-amino-1-((5-carbamoyl-1-((E)-4-(6-carbamoyl-2-(1-ethyl-3-methyl-1H-pyrazol-5-yl)-8-(3-methoxypropoxy)-9H-pyrimido[4,5-b]indol-9-yl)but-2-en-1-yl)-2-(1-ethyl-3-methyl-1H-pyrazole-5-carboxamido)-1H-benzo[d]imidazol-7-yl)oxy)-6,9-bis(carboxymethyl)-12-(3-guanidinopropyl)-5,8,11,14-tetraoxo-4,7,10,13-tetraazaheptadecan-17-oic Acid]
EC50 (Table 2, 24 hours incubation): 200 to 500 nM

CCn1nc(C)cc1C(=O)Nc1nc2cc(C(N)=O)cc(OCCN3CCOCC3)c2n1C/C=C/Cn1c2nc(-c3cc(C)nn3CC)ncc2c2cc(C(N)=O)cc(OCCCOC)c21 [Example 38, (E)-9-(4-(5-carbamoyl-2-(1-ethyl-3-methyl-1H-pyrazole-5-carboxamido)-7-(2-morpholinoethoxy)-1H-benzo[d]imidazol-1-yl)but-2-en-1-yl)-2-(1-ethyl-3-methyl-1H-pyrazol-5-yl)-8-(3-methoxypropoxy)-9H-pyrimido[4,5-b]indole-6-carboxamide]
EC50 (Table 2, 24 hours incubation): 50 to 200 nM

CCn1nc(C)cc1C(=O)Nc1nc2cc(C(N)=O)cc(OCCCNC(=O)OCCC(=O)O)c2n1C/C=C/Cn1c2nc(-c3cc(C)nn3CC)ncc2c2cc(C(N)=O)cc(OCCCOC)c21 [Example 39, (E)-3-(((3-((5-carbamoyl-1-(4-(6-carbamoyl-2-(1-ethyl-3-methyl-1H-pyrazol-5-yl)-8-(3-methoxypropoxy)-9H-pyrimido[4,5-b]indol-9-yl)but-2-en-1-yl)-2-(1-ethyl-3-methyl-1H-pyrazole-5-carboxamido)-1H-benzo[d]imidazol-7-yl)oxy)propyl)carbamoyl)oxy)propanoic Acid]
EC50 (Table 2, 24 hours incubation): < 50 nM
